The record followed here is ChEMBL document CHEMBL4725307, “Topical 'dual-soft' glucocorticoid receptor agonist for dermatology” (Bioorg Med Chem Lett, 2020).

Data set [1] in a line: Half life in cultured human keratinocytes. It is filed as ADME, cell-based, Keratinocyte.
The nature of data set [2]: Half life in human whole blood. It is filed as ADME, tissue-based.
The target of another data set is T1, Glucocorticoid receptor (Homo sapiens, UniProt P04150).
T1 sequence (P04150 whole entry): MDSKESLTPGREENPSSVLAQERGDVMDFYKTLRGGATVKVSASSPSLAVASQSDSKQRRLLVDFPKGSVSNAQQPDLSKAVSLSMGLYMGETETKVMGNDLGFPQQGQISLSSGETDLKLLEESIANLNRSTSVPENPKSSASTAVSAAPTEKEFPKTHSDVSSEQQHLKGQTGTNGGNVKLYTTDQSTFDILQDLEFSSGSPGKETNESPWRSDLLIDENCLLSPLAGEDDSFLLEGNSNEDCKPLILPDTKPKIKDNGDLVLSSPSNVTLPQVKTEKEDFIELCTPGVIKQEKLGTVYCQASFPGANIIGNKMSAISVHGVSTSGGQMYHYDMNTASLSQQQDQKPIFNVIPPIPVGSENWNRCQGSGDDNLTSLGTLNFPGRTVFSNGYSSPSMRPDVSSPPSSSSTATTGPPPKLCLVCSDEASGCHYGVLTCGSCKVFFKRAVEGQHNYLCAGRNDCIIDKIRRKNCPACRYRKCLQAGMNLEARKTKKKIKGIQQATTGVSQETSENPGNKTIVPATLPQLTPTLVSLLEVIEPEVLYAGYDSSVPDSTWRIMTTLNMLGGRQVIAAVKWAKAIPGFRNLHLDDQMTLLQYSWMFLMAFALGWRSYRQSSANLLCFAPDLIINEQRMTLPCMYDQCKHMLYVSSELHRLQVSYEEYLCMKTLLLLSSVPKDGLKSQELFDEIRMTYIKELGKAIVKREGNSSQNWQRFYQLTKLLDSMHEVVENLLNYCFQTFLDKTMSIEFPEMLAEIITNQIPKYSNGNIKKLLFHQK
Briefly: Agonist activity at human glucocorticoid receptor in PBMC assessed as inhibition of LPS-induced TNFalpha release. It is filed as tissue-based.

For data set [3], the target named is T2, Glucocorticoid receptor (Homo sapiens) (UniProt P04150).
T2 sequence (whole entry): T1 sequence (P04150 whole entry)
The data set can be described thus: Agonist activity at human glucocorticoid receptor assessed as inhibition of LPS-induced TNFalpha release in PBMC relative to control. It counts as tissue-based.

The next data set deals with Cytochrome P450. The data set can be described thus: Inhibition of CYP450 (unknown origin). It counts as protein assay. The settings on record: human.
The species named for data set [4] is Homo sapiens. The data set can be described thus: Selectivity ratio for agonist activity at mineralocorticoid receptor (unknown origin) to agonist activity at glucocorticoid receptor (unknown origin).
Data set [5] is filed under the species Homo sapiens. Briefly: Selectivity ratio for agonist activity at androgen receptor (unknown origin) to agonist activity at glucocorticoid receptor (unknown origin).
The target of data set [6] is Voltage-gated inwardly rectifying potassium channel KCNH2 (Homo sapiens, UniProt Q12809). Briefly: Inhibition of human ERG.
Chain of Voltage-gated inwardly rectifying potassium channel KCNH2 (Q12809 whole entry): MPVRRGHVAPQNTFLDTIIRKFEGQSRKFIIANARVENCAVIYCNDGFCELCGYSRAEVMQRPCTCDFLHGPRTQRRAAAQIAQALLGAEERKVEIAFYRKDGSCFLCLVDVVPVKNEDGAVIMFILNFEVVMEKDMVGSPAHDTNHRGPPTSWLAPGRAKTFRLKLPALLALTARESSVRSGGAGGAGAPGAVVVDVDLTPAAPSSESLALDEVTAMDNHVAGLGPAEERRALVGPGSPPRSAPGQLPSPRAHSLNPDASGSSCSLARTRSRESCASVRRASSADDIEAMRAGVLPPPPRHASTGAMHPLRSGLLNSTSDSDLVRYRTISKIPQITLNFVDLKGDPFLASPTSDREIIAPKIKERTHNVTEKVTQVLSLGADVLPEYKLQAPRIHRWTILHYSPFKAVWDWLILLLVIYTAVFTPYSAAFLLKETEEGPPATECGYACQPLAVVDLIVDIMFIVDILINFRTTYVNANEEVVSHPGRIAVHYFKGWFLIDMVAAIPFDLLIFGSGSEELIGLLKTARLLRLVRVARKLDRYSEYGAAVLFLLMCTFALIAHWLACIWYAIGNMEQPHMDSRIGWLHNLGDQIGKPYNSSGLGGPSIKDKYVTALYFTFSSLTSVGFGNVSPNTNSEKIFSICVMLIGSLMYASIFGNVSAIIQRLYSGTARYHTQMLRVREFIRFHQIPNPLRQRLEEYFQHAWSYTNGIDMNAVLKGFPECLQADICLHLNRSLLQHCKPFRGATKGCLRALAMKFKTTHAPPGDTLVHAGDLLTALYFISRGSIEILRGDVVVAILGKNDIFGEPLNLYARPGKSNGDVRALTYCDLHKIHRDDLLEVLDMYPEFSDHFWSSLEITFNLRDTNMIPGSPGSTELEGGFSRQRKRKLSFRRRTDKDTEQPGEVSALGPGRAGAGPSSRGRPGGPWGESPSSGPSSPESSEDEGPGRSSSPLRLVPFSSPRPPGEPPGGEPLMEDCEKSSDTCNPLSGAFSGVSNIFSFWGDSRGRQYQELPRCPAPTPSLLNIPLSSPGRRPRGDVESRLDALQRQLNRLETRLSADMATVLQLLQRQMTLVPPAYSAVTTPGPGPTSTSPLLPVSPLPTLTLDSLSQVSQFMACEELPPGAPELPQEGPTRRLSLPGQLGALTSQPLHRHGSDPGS
For data set [7], the species on record is Homo sapiens. Briefly: Selectivity ratio for agonist activity at progesterone receptor (unknown origin) to agonist activity at glucocorticoid receptor (unknown origin).
The nature of data set [8]: Hepatic clearance in iv dosed rat. It counts as ADME, organism-based. As to conditions: in vivo; call rule not given here.
Data set [9] in a line: Photostability of the compound. It counts as physicochemical.
The nature of data set [10]: Drug metabolism in human hepatocytes assessed as (3R)-3-(hydroxymethyl)-4-oxo-4-[(3S)-3-[[5-[(1R,2S)-1-(p-tolyl)-2-[(2,2,2-trifluoroacetyl)amino]propoxy]pyridine-2-carbonyl]amino]-1-piperidyl]butanoic acid metabolite formation. It is filed as ADME, cell-based, Hepatocyte.
Data set [11] is described as follows: Drug metabolism in rat whole blood assessed as (3R)-3-(hydroxymethyl)-4-oxo-4-[(3S)-3-[[5-[(1R,2S)-1-(p-tolyl)-2-[(2,2,2-trifluoroacetyl)amino]propoxy]pyridine-2-carbonyl]amino]-1-piperidyl]butanoic acid metabolite formation. It counts as ADME, tissue-based.
Data set [12] is described as follows: Drug metabolism in pig whole blood assessed as (3R)-3-(hydroxymethyl)-4-oxo-4-[(3S)-3-[[5-[(1R,2S)-1-(p-tolyl)-2-[(2,2,2-trifluoroacetyl)amino]propoxy]pyridine-2-carbonyl]amino]-1-piperidyl]butanoic acid metabolite formation. It counts as ADME, tissue-based, Sus scrofa.
Data set [13] in a line: Chemical stability assessed as parent compound remaining at pH 7 and 37 degreeC measured after 16 hrs. It is filed as physicochemical. The settings on record: buffer, read-out: Stabilty.
Data set [14] in a line: Drug metabolism in dog hepatocytes assessed as (3R)-3-(hydroxymethyl)-4-oxo-4-[(3S)-3-[[5-[(1R,2S)-1-(p-tolyl)-2-[(2,2,2-trifluoroacetyl)amino]propoxy]pyridine-2-carbonyl]amino]-1-piperidyl]butanoic acid metabolite formation. It counts as ADME, cell-based, Canis lupus familiaris, Hepatocyte.
Data set [15] is described as follows: Drug metabolism in human whole blood assessed as (3R)-3-(hydroxymethyl)-4-oxo-4-[(3S)-3-[[5-[(1R,2S)-1-(p-tolyl)-2-[(2,2,2-trifluoroacetyl)amino]propoxy]pyridine-2-carbonyl]amino]-1-piperidyl]butanoic acid metabolite formation. It counts as ADME, tissue-based.
Data set [16] is described as follows: Drug metabolism in rat hepatocytes assessed as (3R)-3-(hydroxymethyl)-4-oxo-4-[(3S)-3-[[5-[(1R,2S)-1-(p-tolyl)-2-[(2,2,2-trifluoroacetyl)amino]propoxy]pyridine-2-carbonyl]amino]-1-piperidyl]butanoic acid metabolite formation. It is filed as ADME, cell-based, Hepatocyte.
The nature of data set [17]: Drug metabolism in dog whole blood assessed as (3R)-3-(hydroxymethyl)-4-oxo-4-[(3S)-3-[[5-[(1R,2S)-1-(p-tolyl)-2-[(2,2,2-trifluoroacetyl)amino]propoxy]pyridine-2-carbonyl]amino]-1-piperidyl]butanoic acid metabolite formation. It is filed as ADME, tissue-based, Canis lupus familiaris.
The nature of data set [18]: Drug metabolism in pig hepatocytes assessed as (3R)-3-(hydroxymethyl)-4-oxo-4-[(3S)-3-[[5-[(1R,2S)-1-(p-tolyl)-2-[(2,2,2-trifluoroacetyl)amino]propoxy]pyridine-2-carbonyl]amino]-1-piperidyl]butanoic acid metabolite formation. It is filed as ADME, cell-based, Sus scrofa, Hepatocyte.
Data set [19] can be described thus: Chemical stability assessed as parent compound remaining at pH 5.5 and 37 degreeC measured after 16 hrs. The settings on record: buffer, read-out: Stabilty. It is filed as physicochemical.

Bounds are passed on as bounds.

One may read the half-life as how long it takes for the measured level to halve. Consider `Cc1ccc([C@@H](Oc2ccc(C(=O)N[C@H]3CCCN(C(=O)[C@@H]4COC(=O)C4)C3)nc2)[C@H](C)NC(=O)C(F)(F)F)cc1`, for which the values for the half-life in [1] and in data set [2] were above 360 min and 102 min, respectively.

As usually defined, the IC50 is the concentration that gives 50% inhibition. As for `Cc1ccc([C@@H](Oc2ccc(C(=O)Nc3ccccc3)nc2)[C@H](C)NC(=O)C(F)(F)F)cc1`, on Glucocorticoid receptor, the IC50 was 26 nM.

Turning to `Cc1ccc([C@@H](Oc2ccc3c(cnn3-c3ccc(F)cc3)c2)[C@H](C)NC(=O)C(F)(F)F)cc1`, the IC50 at Glucocorticoid receptor came out at 2 nM.

As to `C[C@H](NC(=O)[C@H]1CCCO1)[C@H](Oc1ccc(C(=O)O[C@H]2CCCN(C(=O)[C@@H](CO)CC(=O)O)C2)cc1)c1ccc(C2CC2)cc1`, in [3], the fold change (FC) is above 100.

As for `Cc1ccc([C@@H](Oc2ccc(C(=O)N[C@@H]3CCCN(C(=O)[C@@H]4COC(=O)C4)C3)nc2)[C@H](C)NC(=O)C(F)(F)F)cc1`, the half-life in data set [2] turned out to be 17 min.

Consider `Cc1ccc([C@@H](Oc2ccc(C(=O)N[C@H]3CCCN(C(=O)[C@@H]4CCC(=O)O4)C3)nc2)[C@H](C)NC(=O)C(F)(F)F)cc1`, for which the half-life in data set [2] is 83 min.

`Cc1ccc([C@@H](Oc2ccc(C(=O)N[C@@H]3CCCN(C(=O)[C@H]4COC(=O)C4)C3)nc2)[C@H](C)NC(=O)C(F)(F)F)cc1`: the half-life is above 360 min in [1] and below 10 min in data set [2].

For the compound `C[C@H](NC(=O)[C@H]1CCCO1)[C@H](Oc1ccc(C(=O)O[C@H]2CCCN(C(=O)[C@H]3COC(=O)C3)C2)cc1)c1ccc(C2CC2)cc1`, the “inhibition (INH)” value (in the data set with Cytochrome P450; in [6]) was “Not Active” throughout. The Selectivity ratio in the data set filed under Homo sapiens [4], in the data set listed under Homo sapiens [5] and in the data set listed under Homo sapiens [7] was above 100 in each case. The IC50 on Glucocorticoid receptor worked out at 2 nM. This compound also yielded a CLH in data set [8] of 500 mL/min/kg.

For the compound `C[C@H](NC(=O)[C@@H]1CCCO1)[C@H](Oc1ccc(C(=O)O[C@H]2CCCN(C(=O)[C@H]3COC(=O)C3)C2)cc1)c1ccc(C2CC2)cc1`, the IC50 at Glucocorticoid receptor came to 22 nM.

In data set [2], `Cc1ccc([C@@H](Oc2ccc(C(=O)N[C@@H]3CCCN(C(=O)[C@@H]4CCC(=O)O4)C3)nc2)[C@H](C)NC(=O)C(F)(F)F)cc1` gave a half-life of 44 min.

`Cc1ccc([C@@H](Oc2ccc(C(=O)N[C@@H]3CCCN(C(=O)[C@H]4CCC(=O)O4)C3)nc2)[C@H](C)NC(=O)C(F)(F)F)cc1` returned a half-life in [2] of 51 min.

As to `Cc1ccc([C@@H](Oc2ccc(C(=O)N[C@H]3CCCN(C(=O)[C@H]4COC(=O)C4)C3)cc2)[C@H](C)NC(=O)C(F)(F)F)cc1`, the IC50 on Glucocorticoid receptor amounted to 79 nM.

As for `C[C@H](NC(=O)C(F)(F)F)[C@H](Oc1ccc(C(=O)O[C@H]2CCCN(C(=O)[C@H]3COC(=O)C3)C2)cc1)c1ccc(C2CC2)cc1`, on Glucocorticoid receptor, the half-inhibitory concentration (IC50) was found to be 1 nM.

With `Cc1ccc([C@@H](Oc2ccc(C(=O)N[C@H]3CCCN(C(=O)[C@H]4COC(=O)C4)C3)nc2)[C@H](C)NC(=O)C(F)(F)F)cc1`, in [9], the Stabilty result is “Stable”. Further, the Drug metabolism result in data set [10], in data set [11], in data set [12], in data set [14], in data set [15] and in data set [16] was “Metabolite_Detected” in each case. Further, the Drug metabolism entry in data set [17] and in data set [18] was “Metabolite_Detected” in each case. In addition, the half-life in [1] was above 360 min; in [2] it was below 10 min. Also, the figures for the remaining at 16 h in data set [13] and in [19] were 82% and above 95%, respectively.

With `Cc1ccc([C@@H](Oc2ccc(C(=O)N[C@H]3CCCN(C(=O)[C@H]4CCC(=O)O4)C3)nc2)[C@H](C)NC(=O)C(F)(F)F)cc1`, the half-life in [1] was above 360 min; in data set [2] it was above 120 min.
